Columns and labels:
IDO1 = IDO1 (Homo sapiens, UniProt P14902); assay: IDO1 activity assay, N-formylkynurenine absorbance at 321 nm; assay type: biochemical
Experimental: FIG. 2 is a graph showing the activity of IDO1 (500 nM) (204) with L-tryptophan (200 μM) as substrate glutathione alone (203), and also when activated by 3 MI (500 nM) with glutathione (5 mM) (201), and by 3 MI (500 nM) without glutathione (202).
FIG. 6 reflects a system involving IDO1 (50 nM), 0.1 mM L-tryptophan, and 5 mM glutathione in 100 mM sodium phosphate, pH 7.0 with <1 μM 6-chloro-5-fluoro-1H-indole-3-thiol.
The activity of the compounds was determined as follows. UV-vis spectra were recorded using a Hewlett-Packer 8453 diode array spectrophotometer. Activity assays were done at room temperature using 100 mM sodium phosphate, pH 7.0, with 500 nM IDO1 (ε404nm=172 mM^−1 cm^−1) and 50 μM L-tryptophan. These were initiated by addition of IDO1, and activity was monitored at 321 nm where product N-formylkynurenine absorbs (ε321nm=3750 M^−1 cm^−1).
The substituted indole compound was prepared daily in a 100 mM stock solution in dimethyl sulfoxide (DMSO), and this was serially diluted to maintain a consistent final concentration of 1% (v/v) DMSO in each assay. To maintain activity, 5 mM reduced glutathione was added to some of these from a 0.5 M stock solution. The substituted indole compound was generally tested from 100 nM to 10 μM. The ability of each compound to serve as a reducing substrate for IDO1 was fit using a Michaelis-Menten equation. […] Above 5 μM 3 MI, there was a steep inhibitory effect.

ferric IDO1 = ferric IDO1 (Homo sapiens, UniProt P14902); assay: Stopped-flow UV-vis spectrometry of binding to ferric IDO1
Experimental: FIG. 3 is a graph showing the second-order rate constant of 3 MI binding to ferric IDO1 determined by stopped-flow spectrometry.
FIG. 4 is a graph showing stopped-flow UV-vis spectrometry of 3 MI (30 μM) binding to IDO1 (1.4 μM) over 0.2 s.
3-Mercaptoindole (3 MI) was seen to bind to IDO1 with a fast on-rate of 1.7×10^6 M^−1 s^−1 under pseudo-first-order conditions (See FIG. 3), producing a UV-vis spectrum (see FIG. 4) that has a Soret at 424 nm, a lower peak at 321 nm, and broad q-bands at 537 nm and a shoulder at about 575 nm. […] Note that although 3 MI is referred to here, similar results can be seen with other substituted indole compounds disclosed herein.

ferric-superoxo IDO1 = ferric-superoxo IDO1 (Homo sapiens, UniProt P14902); assay: Double-mixing stopped-flow spectrometry, reaction with ferric-superoxo IDO1; assay type: biochemical; conditions: 3 MI kept reduced with 5 mM glutathione; estimated, double exponential fit
Experimental: The nature of substituted indole compound-inhibition at high concentrations (>5 μM) was examined further with ferric-superoxo IDO1, the active tryptophan-oxidizing species. Ferric-superoxo IDO1 was generated using double-mixing stopped-flow spectrometry by mixing IDO1 prereduced with 2 mM sodium dithionite into aerobic buffer for 0.5 s. This ferric superoxo species was then mixed in the second push with 3 MI that had been maintained in the reduced state using 5 mM glutathione. 3 MI readily reacted with ferric-superoxo IDO1 to form ferric IDO1 without any observable intermediates. This was shown by a fast shift from the ferric-superoxo complex (Amax 415 nm) to the ferric (Amax 404 nm) that was completed nearly within the mixing time of the instrument (<10 ms) even at the lowest concentration of 3 MI useful for pseudo-first-order reaction conditions (where 3 MI must be at a large excess over IDO1). Following this fast conversion to ferric IDO1, there was a slower shift to the ferric 3 MI-bound complex as indicated by the Soret shifting to 424 nm (as in FIG. 4). To account for both reactions, these traces were fit using a double exponential expression.

myoglobin = target: T1, myoglobin (Homo sapiens, UniProt P02144); assay: Heme protein selectivity by stopped-flow UV-vis spectrometry, myoglobin; assay type: biochemical; conditions: pseudo-first-order conditions
T1 sequence (P02144 1-154): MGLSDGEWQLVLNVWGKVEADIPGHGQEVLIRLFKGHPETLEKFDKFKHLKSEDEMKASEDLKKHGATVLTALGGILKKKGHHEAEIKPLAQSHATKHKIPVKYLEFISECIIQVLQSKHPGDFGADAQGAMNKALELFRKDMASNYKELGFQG
Experimental: (§1) Since hydrogen sulfide and polysulfides are known to react with other heme proteins, the selectivity of 3 MI for IDO1 was examined by mixing the substituted indole compounds (such as 3 MI) with several other heme proteins and observing their reactions using stopped-flow UV-vis spectrometry.
(§2) The substituted indole compounds had no effect on catalase even at 250 µM, whereas the substituted indole compounds did appear to reduce myoglobin and hemoglobin, producing their oxygen-bound forms. The substituted indole compound was also able to reduce ferric cytochrome c to its distinctive ferrous form. The second-order rate constants of these reactions were determined under pseudo-first-order conditions giving 6.6×10^3, 1.6×10^4, and 2.7×10^5 M^−1 s^−1 for myoglobin, hemoglobin, and cytochrome c, respectively. […] Unlike myoglobin and hemoglobin, the oxy-form of IDO1 was not observed due to the relatively slow reduction of IDO1 by 3 MI.

hemoglobin = hemoglobin (Homo sapiens, UniProt P68871+P69905); assay: Heme protein selectivity by stopped-flow UV-vis spectrometry, hemoglobin; assay type: biochemical; conditions: pseudo-first-order conditions
Experimental: as §1, §2

ferric cytochrome c = ferric cytochrome c (Homo sapiens, UniProt P99999); assay: Heme protein selectivity by stopped-flow UV-vis spectrometry, cytochrome c; assay type: biochemical; conditions: pseudo-first-order conditions
Experimental: as §1, §2

Sequence of IDO1 (P14902 whole entry): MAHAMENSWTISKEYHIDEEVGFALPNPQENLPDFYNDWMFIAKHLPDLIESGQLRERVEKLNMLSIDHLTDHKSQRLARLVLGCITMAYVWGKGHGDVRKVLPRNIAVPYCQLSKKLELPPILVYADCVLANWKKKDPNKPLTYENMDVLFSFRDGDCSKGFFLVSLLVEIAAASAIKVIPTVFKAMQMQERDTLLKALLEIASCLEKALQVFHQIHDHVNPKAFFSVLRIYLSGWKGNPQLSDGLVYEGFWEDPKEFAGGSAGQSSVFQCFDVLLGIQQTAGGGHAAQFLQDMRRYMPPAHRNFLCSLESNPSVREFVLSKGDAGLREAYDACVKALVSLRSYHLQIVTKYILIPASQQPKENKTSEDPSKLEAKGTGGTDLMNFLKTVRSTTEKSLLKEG
Sequence of ferric IDO1 (P14902 whole entry): as above
Sequence of ferric-superoxo IDO1 (P14902 whole entry): as above
Sequence of hemoglobin (P69905 2-142 limits assumed): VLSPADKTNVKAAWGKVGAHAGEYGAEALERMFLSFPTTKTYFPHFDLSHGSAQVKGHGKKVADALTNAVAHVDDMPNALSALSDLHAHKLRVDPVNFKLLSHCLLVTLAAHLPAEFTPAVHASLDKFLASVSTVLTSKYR
Sequence of hemoglobin (P68871 2-147 limits assumed): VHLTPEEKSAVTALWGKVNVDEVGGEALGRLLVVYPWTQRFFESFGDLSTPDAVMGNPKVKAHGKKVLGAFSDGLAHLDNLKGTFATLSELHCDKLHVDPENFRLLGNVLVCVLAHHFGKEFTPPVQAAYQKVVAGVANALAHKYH
Sequence of ferric cytochrome c (P99999 whole entry): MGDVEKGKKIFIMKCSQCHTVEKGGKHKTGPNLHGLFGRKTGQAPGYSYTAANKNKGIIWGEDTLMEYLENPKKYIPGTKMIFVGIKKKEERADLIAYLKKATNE

Sc1c[nH]c2ccccc12 [3 MI, 3-Mercaptoindole]
concentration above which there was a steep inhibitory effect (IDO1): Above 5 μM | Km (IDO1; 500 nM IDO1, 50 μM L-tryptophan, 100 mM sodium phosphate pH 7.0, room temperature, Michaelis-Menten fit, read-out: Km of activation): 2.2 ± 0.7 µM | IDO1 activity with reduced glutathione added (IDO1; 5 mM reduced glutathione (FIG. 2, 201)): sustained 3 MI-induced IDO1 activity | time after which the initial burst of IDO1 activity leveled off (IDO1; 3 MI without glutathione (FIG. 2, 202)): 500 s | Kd of binding to IDO1 (ferric IDO1; complete conversion to bound IDO1 at micromolar concentrations of 3 MI): submicromolar | second-order rate constant of initial reaction with ferric-superoxo IDO1 (ferric-superoxo IDO1): > 10^7 M^−1 s^−1 | second-order rate constant of reduction of myoglobin (myoglobin): 6600 M⁻¹ s⁻¹ | second-order rate constant of reduction of hemoglobin (hemoglobin): 16000 M⁻¹ s⁻¹ | second-order rate constant of reduction of cytochrome c (ferric cytochrome c): 270000 M⁻¹ s⁻¹

Sc1c[nH]c2ccccc12 [3-Mercaptoindole (3 MI)]
on-rate (second-order rate constant) of binding to IDO1 (ferric IDO1; pseudo-first-order conditions, stopped-flow): 1.7e+06 M⁻¹ s⁻¹

Fc1cc2c(S)c[nH]c2cc1Cl [6-chloro-5-fluoro-1H-indole-3-thiol]
IDO1 activity, N-formylkynurenine absorbance at 321 nm over time (FIG. 6) (IDO1; IDO1 50 nM, 0.1 mM L-tryptophan, 5 mM glutathione, 100 mM sodium phosphate pH 7.0, <1 μM compound, background subtracted): increase in absorbance
